# According to patent US10981926B2 (Janssen Pharmaceutica NV, priority 2016, dated 2021):
# What was measured:
# Type in all cases: cell-based
# [1] = biological target: T1, F876L mutant Androgen Receptor (AR-F876L) (Homo sapiens (Human), UniProt P10275, F877L); assay: LNCaP-AR-F876L ANT reporter assay (antagonist mode); settings: antagonist mode; for Emax: maximum % inhibition of R1881 control response over tested concentration range, read-out: LNCaP-AR-F876L ANT MAX % Inh; for IC50: pIC50 = −Log10(IC50 in Molar), read-out: LNCaP-AR-F876L ANT pIC50 (converted)
# T1 sequence (P10275 whole entry F877L): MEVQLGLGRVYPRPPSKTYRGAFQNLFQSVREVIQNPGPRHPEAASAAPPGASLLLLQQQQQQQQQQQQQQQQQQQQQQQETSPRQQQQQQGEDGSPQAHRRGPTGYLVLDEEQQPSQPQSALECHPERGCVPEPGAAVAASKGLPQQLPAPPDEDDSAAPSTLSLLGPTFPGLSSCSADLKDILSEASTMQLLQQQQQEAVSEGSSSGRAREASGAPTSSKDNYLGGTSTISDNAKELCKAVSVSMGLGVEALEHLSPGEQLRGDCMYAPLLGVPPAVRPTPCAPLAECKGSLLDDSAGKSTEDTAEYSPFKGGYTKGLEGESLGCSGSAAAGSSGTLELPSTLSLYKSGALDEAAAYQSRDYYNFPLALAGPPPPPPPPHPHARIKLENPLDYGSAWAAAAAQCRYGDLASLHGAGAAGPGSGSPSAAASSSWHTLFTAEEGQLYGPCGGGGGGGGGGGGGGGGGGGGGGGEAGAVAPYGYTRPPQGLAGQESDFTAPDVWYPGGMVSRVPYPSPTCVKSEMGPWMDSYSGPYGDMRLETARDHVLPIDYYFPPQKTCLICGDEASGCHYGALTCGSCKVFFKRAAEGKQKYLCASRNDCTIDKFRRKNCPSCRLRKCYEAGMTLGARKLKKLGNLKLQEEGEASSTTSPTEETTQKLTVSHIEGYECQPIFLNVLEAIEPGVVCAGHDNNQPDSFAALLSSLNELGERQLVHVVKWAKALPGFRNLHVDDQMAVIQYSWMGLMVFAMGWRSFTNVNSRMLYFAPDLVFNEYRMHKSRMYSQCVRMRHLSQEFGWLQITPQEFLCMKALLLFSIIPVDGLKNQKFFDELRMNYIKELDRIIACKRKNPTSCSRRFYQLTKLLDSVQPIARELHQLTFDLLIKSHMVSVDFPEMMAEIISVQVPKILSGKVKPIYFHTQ
# [2] = biological target: T2, wild-type Androgen Receptor (AR-wt) (Homo sapiens (Human), UniProt P10275); assay: LNCaP-AR-wt AG reporter assay (agonist mode); settings: agonist mode; for Emax: maximum % stimulation over tested concentration range, read-out: LNCaP-AR-wt AG MAX % Stim; for EC50: pEC50 = −Log10(EC50 in Molar), read-out: LNCaP-AR-wt AG pEC50 (converted)
# T2 sequence (P10275 whole entry): as the sequence (P10275 whole entry F877L) above, with L877F counted along it
# [3] = biological target: T2, wild-type Androgen Receptor (AR-wt); assay: LNCaP-AR-wt ANT reporter assay (antagonist mode); settings: antagonist mode; for Emax: maximum % inhibition of R1881 control response over tested concentration range, read-out: LNCaP-AR-wt ANT MAX % Inh; for IC50: pIC50 = −Log10(IC50 in Molar), read-out: LNCaP-AR-wt ANT pIC50 (converted)
# [4] = biological target: T1, F876L mutant Androgen Receptor (AR-F876L); assay: LNCaP-AR-F876L AG reporter assay (agonist mode); settings: agonist mode; for Emax: maximum % stimulation over tested concentration range, read-out: LNCaP-AR-F876L AG MAX % Stim; for EC50: pEC50 = −Log10(EC50 in Molar), read-out: LNCaP-AR-F876L AG pEC50 (converted)
Structure (SMILES),Emax [1] [%],IC50 [1] [nM],Emax [2] [%],EC50 [2] [nM],Emax [3] [%],IC50 [3] [nM],Emax [4] [%],EC50 [4] [nM]
"CN1CC[C@H](CNC(=O)c2ccc(N3C(=S)N(c4cnc(C#N)c(C(F)(F)F)c4)C(=O)C34CCC4)cc2)C1 [Cpd 206, 4-[6-[6-cyano-5-(trifluoromethyl)-3-pyridyl]-5-oxo-7-thioxo-6,8-diazaspiro[3.4]octan-8-yl]-N-[[(3R)-1-methylpyrrolidin-3-yl]methyl]benzamide]",99.3,617,0.1,> 15100,101,851,0.1,> 15100
"CN(C)C1(COc2ccc(N3C(=S)N(c4cnc(C#N)c(C(F)(F)F)c4)C(=O)C34CCC4)cc2)COC1 [Cpd 208, 5-[8-[4-[[3-(dimethylamino)oxetan-3-yl]methoxy]phenyl]-5-oxo-7-thioxo-6,8-diazaspiro[3.4]octan-6-yl]-3-(trifluoromethyl)pyridine-2-carbonitrile]",101,1020,0,> 15100,103,871,0,> 15100
"CN1CCC(CN(C)C(=O)c2ccc(N3C(=S)N(c4cnc(C#N)c(C(F)(F)F)c4)C(=O)C34CCC4)cc2)CC1 [Cpd 209, 4-[6-[6-cyano-5-(trifluoromethyl)-3-pyridyl]-5-oxo-7-thioxo-6,8-diazaspiro[3.4]octan-8-yl]-N-methyl-N-[(1-methyl-4-piperidyl)methyl]benzamide]",100,417,-0.1,> 15100,99,457,0,> 15100
"CN1CCC(C)(Oc2ccc(N3C(=S)N(c4cnc(C#N)c(C(F)(F)F)c4)C(=O)C34CCC4)cn2)CC1 [Cpd 210, 5-[8-[6-[(1,4-dimethyl-4-piperidyl)oxy]-3-pyridyl]-5-oxo-7-thioxo-6,8-diazaspiro[3.4]octan-6-yl]-3-(trifluoromethyl)pyridine-2-carbonitrile]",100,1100,0.1,> 15100,102,1170,0.1,> 15100
"COc1cc(N2C(=O)C3(CCC3)N(c3ccc4c(cnn4C4CCNCC4)c3)C2=S)cnc1C#N [Cpd 211, 3-methoxy-5-[5-oxo-8-[1-(4-piperidyl)indazol-5-yl]-7-thioxo-6,8-diazaspiro[3.4]octan-6-yl]pyridine-2-carbonitrile]",101,363,0.5,> 15100,101,1050,0.1,> 15100
"COc1cc(N2C(=O)C3(CCC3)N(c3ccc4c(cnn4C4CCN(C(C)=O)CC4)c3)C2=S)cnc1C#N [Cpd 212, 5-[8-[1-(1-acetyl-4-piperidyl)indazol-5-yl]-5-oxo-7-thioxo-6,8-diazaspiro[3.4]octan-6-yl]-3-methoxy-pyridine-2-carbonitrile]",96.1,331,0.2,> 15100,102,135,1.5,> 15100

# Second part, the compound after the results:
Emax [1] [%],IC50 [1] [nM],Emax [2] [%],EC50 [2] [nM],Emax [3] [%],IC50 [3] [nM],Emax [4] [%],EC50 [4] [nM],Structure (SMILES)
100,282,0.2,> 15100,102,550,0.1,> 15100,"COc1cc(N2C(=O)C3(CCC3)N(c3ccc4c(cnn4C4CCN(C)CC4)c3)C2=S)cnc1C#N [Cpd 213, 3-methoxy-5-[8-[1-(1-methyl-4-piperidyl)indazol-5-yl]-5-oxo-7-thioxo-6,8-diazaspiro[3.4]octan-6-yl]pyridine-2-carbonitrile]"
99.9,219,0.3,> 15100,100,288,0,> 15100,"COc1cc(N2C(=O)C3(CCC3)N(c3ccc4nn(C5CCNCC5)cc4c3)C2=S)cnc1C#N [Cpd 214, 3-methoxy-5-[5-oxo-8-[2-(4-piperidyl)indazol-5-yl]-7-thioxo-6,8-diazaspiro[3.4]octan-6-yl]pyridine-2-carbonitrile]"
101,240,0,> 15100,101,347,0.1,> 15100,"COc1cc(N2C(=O)C3(CCC3)N(c3ccc4nn(C5CCN(C)CC5)cc4c3)C2=S)cnc1C#N [Cpd 215, 3-methoxy-5-[8-[2-(1-methyl-4-piperidyl)indazol-5-yl]-5-oxo-7-thioxo-6,8-diazaspiro[3.4]octan-6-yl]pyridine-2-carbonitrile]"
98.7,1480,0.1,> 15100,98.8,1620,0,> 15100,"CN1CC(CNC(=O)c2ccc(N3C(=S)N(c4cnc(C#N)c(C(F)(F)F)c4)C(=O)C34CCC4)cc2)C1 [Cpd 216, 4-[6-[6-cyano-5-(trifluoromethyl)-3-pyridyl]-5-oxo-7-thioxo-6,8-diazaspiro[3.4]octan-8-yl]-N-[(1-methylazetidin-3-yl)methyl]benzamide]"
100,355,0.4,> 15100,102,372,0.1,> 15100,"N#Cc1ncc(N2C(=O)C3(CCC3)N(c3ccc(CN4CCOCC4)cc3)C2=S)cc1C(F)(F)F [Cpd 217, 5-[8-[4-(morpholinomethyl)phenyl]-5-oxo-7-thioxo-6,8-diazaspiro[3.4]octan-6-yl]-3-(trifluoromethyl)pyridine-2-carbonitrile]"
99.6,912,0,> 15100,102,1170,0.1,> 15100,"CN1CC[C@H](CNC(=O)c2ccc(N3C(=S)N(c4cnc(C#N)c(C(F)(F)F)c4)C(=O)C34CCC4)cc2F)C1 [Cpd 218, 4-[6-[6-cyano-5-(trifluoromethyl)-3-pyridyl]-5-oxo-7-thioxo-6,8-diazaspiro[3.4]octan-8-yl]-2-fluoro-N-[[(3R)-1-methylpyrrolidin-3-yl]methyl]benzamide]"
101,347,0.3,> 15100,102,372,0.2,> 15100,"CN1CCN(Cc2ccc(N3C(=S)N(c4cnc(C#N)c(Cl)c4)C(=O)C34CCC4)cc2)CC1 [Cpd 219, 3-chloro-5-[8-[4-[(4-methylpiperazin-1-yl)methyl]phenyl]-5-oxo-7-thioxo-6,8-diazaspiro[3 4]octan-6-yl]pyridine-2-carbonitrile]"
101,589,0.1,> 15100,102,741,0.1,> 15100,"N#Cc1ncc(N2C(=O)C3(CCC3)N(c3ccc(CN4CCN(C5CC5)CC4)cc3)C2=S)cc1C(F)(F)F [Cpd 220, 5-[8-[4-[(4-cyclopropylpiperazin-1-yl)methyl]phenyl]-5-oxo-7-thioxo-6,8-diazaspiro[3.4]octan-6-yl]-3-(trifluoromethyl)pyridine-2-carbonitrile]"
